# US20250169495A1, “COMPOSITIONS AND METHODS FOR CONTROLLING DROSOPHILA FLIES” (Rutgers, The State University of New Jersey, priority 2023, published 2025)
# System: Drosophila suzukii adults
# Test: Multiple choice bioassay #1: anthracnose-induced volatiles, gated traps with blueberries
# Assay type: in vivo
# Conditions: 50 μL neat volatile added to blueberry fruit in gated trap; 15 traps per arena; 24 h; n=4
# Method: These bioassays were done in arenas that consisted of a dome cage (60 cm width×60 cm length x 60 cm height; BugDorm-2120 Insect tent; shop.bugdorm.com) (FIG. 1A). Within each arena, 15 gated traps were positioned randomly in a circle (40 cm diameter) at equal distance with each trap 8.4 cm apart along the circumference (FIG. 1A). Each gated trap consisted of 50 mL polystyrene tubes (Fisher Scientific, Nazareth, PA, USA) covered with aluminum foil and sealed with Parafilm®, with a 4 mm-diameter hole in the center of the Parafilm to provide an entrance to flies. All traps had equal quantities (ca. 5 g) of store-bought organic blueberry fruit (n=5); fruit were sterilized with bleach prior to the study (10% bleach for 2 min, rinsed three times in distilled water). One of the 15 traps served as a control (with blueberry fruit only) and the remaining 14 traps had one of the anthracnose volatile compounds added to the blueberry fruit. The 14 compounds tested were: 3-hydroxy-2-butanone, styrene, (E)-2-hexen-1-ol, ethyl 3-hydroxy-3-methylbutanoate, 2-methyl-1-butanol, ethyl propanoate, 2-methyl-1-propanol, diethyl carbonate, 2-methylpropanal, 3-methyl-1-butanol, ethyl 2-methylpropanoate, ethyl butanoate, ethyl (E)-but-2-enoate, and 3-methyl-3 buten-1-ol (see Results). Each volatile (50 μL, neat) was released from a 1 mL polyethylene vial (Globe Scientific Inc., Paramus, NJ, USA) with a piece of cotton placed inside each trap (control traps had vials with cotton but without the volatile). A vial with a cotton ball soaked with deionized water was placed in the middle of the arena to provide flies with water during the experiment. Roughly 300 D. suzukii adults (1:1 male: female ratio) were released inside each arena and the number and sex of flies inside treatment and control traps was recorded after 24 h. The experiment started at 1:00 p.m., was replicated 4 times, and was done in a laboratory under 22+2° C., 55+5% RH, 16:8 (L:D) h.
# Data from multiple choice assays on the percent of male and female D. suzukii adults responding to each volatile were compared using ANOVA (Minitab version 17; Minitab Inc., State College, PA, USA). The ANOVA model included treatment, sex, and their interaction as fixed factors and block (replicate) as a random factor. A multi-comparison Tukey test (Minitab) was used to determine differences among treatments. Percent data were arcsine square-root transformed prior to ANOVA. Pairwise choice assays were analyzed using G-tests with William's correction. Non-responders were excluded from the statistical analyses.
row,SMILES,number of flies captured relative to the control
1,CCOC(=O)C(C)C [ethyl 2-methylpropanoate],reduced the number of flies captured relative to the control
2,"CCOC(=O)CC(C)(C)O [ethyl 3-hydroxy-3-methylbutanoate, Ethyl 3-hydroxy-3-methylbutanoate]",captured a similar number of flies as the control
3,"CC(=O)C(C)O (stereo not shown) [3-hyrdroxy-2-butanone, 3-Hydroxy-2-butanone]",trapped a higher number of flies than the control
4,C=C(C)CCO [3-methyl-3-buten-1-ol],reduced the number of flies captured relative to the control
5,CCC/C=C/CO [(E)-2-hexen-1-ol],captured a similar number of flies as the control
6,CC(C)CO [2-methyl-1-propanol],reduced the number of flies captured relative to the control
7,CCC(C)CO (stereo not shown) [2-methyl-1-butanol],captured a similar number of flies as the control
8,CC(C)C=O [2-methylpropanal],reduced the number of flies captured relative to the control
9,CCOC(=O)CC [ethyl propanoate],reduced the number of flies captured relative to the control
10,CCOC(=O)OCC [diethyl carbonate],reduced the number of flies captured relative to the control
11,C=Cc1ccccc1 [styrene],trapped a higher number of flies than the control
12,CC(C)CCO [3-methyl-1-butanol],reduced the number of flies captured relative to the control

# System: Drosophila suzukii adults
# Test: Multiple choice bioassay #2: known and putative repellents
# Assay type: in vivo
# Conditions: 50 μL neat; six traps per arena; 24 h; n=6
# Method: Within each arena, six gated traps were positioned randomly in a circle (40 cm diameter) at equal distance with each trap 20 cm apart along the circumference. Each gated trap contained ˜5 g of store-bought organic blueberry fruit (n=5), as described elsewhere herein. One of the six traps served as a control (with blueberry fruit only) and the remaining five traps had one of the repellents added to the blueberry fruit. Each volatile (50 μL, neat) was released from a 1 mL polyethylene vial with a piece of cotton placed inside each trap (control traps had vials with cotton but without the volatile). A vial with a cotton ball soaked with deionized water was placed in the middle of the arena. Roughly 150 D. suzukii adults (1:1 male: female ratio) were released inside each arena and the number and sex of flies inside treatment and control traps was recorded after 24 h. The experiment started at 1:00 p.m., was replicated 6 times, and was done in a laboratory under 22±2° C., 55±5% RH, 16:8 (L:D) h. Data from multiple choice assays on the percent of male and female D. suzukii adults responding to each volatile were compared using ANOVA (Minitab version 17; Minitab Inc., State College, PA, USA). The ANOVA model included treatment, sex, and their interaction as fixed factors and block (replicate) as a random factor. A multi-comparison Tukey test (Minitab) was used to determine differences among treatments. Percent data were arcsine square-root transformed prior to ANOVA. Pairwise choice assays were analyzed using G-tests with William's correction. Non-responders were excluded from the statistical analyses.
row,SMILES,strength of repellency among the five repellents (rank)
1,CC1CCCC2(C)CCCCC12O (stereo not shown) [geosmin],the least repellent
